For this assay, the system named is CEM cells HIV-1 protection, formazan growth assay. Kind of assay: NCI AIDS Antiviral Assay. The following applies: for IC50: measured here: growth of uninfected CEM cells. Put shortly: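 Screen of anti-HIV-1 activity in human CEM cells using a formazan-based growth measurement at five drug concentrations. Hits with 50% or greater protection were repeated, and confirmation required reproducible complete protection.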

We go through 53 compounds from PubChem BioAssay AID179 (DTP/NCI, 2004).

Calls of active or inactive are those of the source.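 The calls were made as follows: active = compounds giving half or more protection of infected cells from virus-caused growth loss, again on retest; inactive = the rest.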

For the compound `CCCCCC/C=C\CCCCCCCCCC1=C(CN2CCN(C)CC2)C(=O)C=C(OC)C1=O`, the EC50 (as a rule, the concentration at which the effect is half-maximal) was more than 200 µM and the IC50 (usually the concentration that inhibits the measured activity by half) worked out at 1 µM. In the same order, the values of `Cc1ccc2c(c1)CC1(Cc3cc(C)ccc3C1=O)C2=O` are more than 200 µM and more than 200 µM. In the same order, the values of `c1ccc([P+](c2ccccc2)(c2ccccc2)c2ccc([P+](c3ccccc3)(c3ccccc3)c3ccccc3)cc2)cc1` are more than 74.1 µM and 30.9 µM.

As for `C[C@H]1CCCCC[C@@H]2CC(=O)CC2C(=O)CCC(=O)O1` (stereo partly drawn), the EC50 is more than 200 µM and the IC50 was more than 200 µM. Take `S=C1CNC(=S)CN1`: the outcome was inactive. Take `N=C1N(c2ccccc2)C(=S)C(=Nc2ccccc2)N1c1ccccc1`: the EC50 was more than 200 µM and the IC50 was 3.89 µM. As for `COc1cc(-c2cc(=O)c3c(O)cc(C)cc3o2)cc(OC)c1OC`, the EC50 was more than 200 µM and the IC50 was more than 200 µM. On to `Cc1nn(C(=O)c2ccccc2O)c2c1C(c1ccc([N+](=O)[O-])cc1)SC(N)=N2` (stereo not drawn), for which the EC50 was more than 2 µM and the IC50 was found to be 0.389 µM. The corresponding values for `NC(=O)C1C(=O)c2cccc3c2C1CCCC3` (stereo not drawn) are more than 234 µM and 69.2 µM. Regarding `COc1ccc2[nH]c3c4c(c5cc(C(C)(C)C)ccc5c3c2c1)C(=O)N(c1ccccc1)C4=O`, the outcome was inactive. Take `CCCNC(=S)/N=C/c1c(O)c2ccccc2[nH]c1=O`: the EC50 was more than 200 µM and the IC50 was more than 200 µM.

Turning to `CN(C)C=C1C=CC=C1`, the EC50 was 166 µM and the 50% inhibitory concentration (IC50) is more than 200 µM. With `CSCCC(NC(=O)OCc1ccccc1)NC(=O)OCc1ccccc1`, the EC50 is more than 200 µM and the IC50 is more than 200 µM.

In the case of `CN1CC(=O)N(C)c2nc[nH]c2C1=O`, the outcome was inactive. Turning to `OCC1CC(F)C(n2cnc3c(Br)ncnc32)O1` (stereo not drawn), the EC50 was more than 158 µM and the IC50 worked out at 27.5 µM. In the same order, the values of `Cc1ccc(C2=Nc3cc(C)c(Cl)cc3S(=O)(=O)NN2)cc1` are 34.7 µM and 87.1 µM.

For `C#CC(C)(C)Oc1ccc2c(=O)c(-c3ccc(OC)cc3)coc2c1`, the EC50 is more than 200 µM and the IC50 stood at 20 µM. Consider `COc1cc(C(c2ccc3c(c2)OCO3)C2SCCCS2)cc(OC)c1OC` (stereo not drawn), for which the EC50 is more than 200 µM and the IC50 was 0.871 µM. Consider `CN(C)C=NCCN1CCOCC1`, for which the EC50 was more than 200 µM and the IC50 was more than 200 µM. As to `COc1ccc2c(c1)OC[C@@H]1c3cc(NS(=O)(=O)c4ccccc4)cc(OCc4ccccc4)c3O[C@H]21`, the EC50 was 10.2 µM and the IC50 was 13.5 µM.

Regarding `CC1CC(=O)c2ccccc2O1` (stereo not drawn), the EC50 is more than 200 µM and the half-inhibitory concentration (IC50) was more than 200 µM. For the compound `Nc1c(C(=O)O)nnc2cc(Cl)c(Cl)cc12`, the EC50 is more than 200 µM and the IC50 is more than 200 µM.

For `CC1CC(=O)Nc2ccccc2N1` (stereo not drawn), the EC50 is more than 200 µM and the IC50 is more than 200 µM.

`CC1=Nc2ccccc2N=C(c2c(O)c3c(ccc4ccccc43)oc2=O)C1`: the EC50 is more than 200 µM and the IC50 amounted to 20 µM. In the same order, the values of `Cc1nnc(N)nc1/C=C\c1cccs1` are more than 200 µM and 5.5 µM. In the same order, the values of `COc1ccc2c(=O)c(-c3ccc4c(c3)OCO4)c(C)oc2c1` are more than 200 µM and 42.7 µM.

As for `Cc1ccc(/C=C/C(=N/NC(=O)N/N=C(/C=C/c2ccc(C)cc2)C(C)C)C(C)C)cc1`, the EC50 was more than 100 µM and the IC50 is more than 100 µM. In the case of `COc1cc2c3c(c1OC)C(=O)C=C3N(S(=O)(=O)c1ccc(C)cc1)CC2`, the result was inactive.

In the case of `CCCC1c2c(cc(=O)[nH]c2O)C(=O)N1Cc1ccccc1` (stereo not drawn), the concentration for a half-maximal effect (EC50) was more than 63.1 µM and the half-maximal inhibitory concentration (IC50) is more than 63.1 µM. In the case of `COC(=O)c1c/c(=N\NC(=O)CC(=O)Nc2ccc(C)cc2)c2ccccc2o1`, the EC50 is more than 631 µM and the IC50 is more than 631 µM. For the compound `O=C(CSc1nnc(-c2ccc(N=Cc3ccc(Cl)cc3)cc2)o1)Nc1cccc(Cl)c1`, the EC50 is more than 74.1 µM and the IC50 was more than 74.1 µM. With `CCOC(=O)c1cc2c(C(=O)c3ccc([N+](=O)[O-])cc3)c(C(C)=O)ccc2[nH]1`, the EC50 was more than 200 µM and the IC50 worked out at 174 µM.

Consider `C[C@]12CC(C=O)C(=O)C(O)=C1CC[C@@H]1C2CC[C@@]2(C)C1CC[C@]2(C)O` (stereo partly drawn), for which the outcome was inactive. As to `Cc1csc2nc(-c3ccncc3)cn12`, the EC50 was more than 417 µM and the half-inhibitory concentration (IC50) was 105 µM. In the case of `c1ccc(C[P+]2(c3ccccc3)c3ccccc3-c3ccccc32)cc1`, the EC50 was more than 200 µM and the IC50 was more than 200 µM. Take `NC1=C(c2nc(-c3ccccc3)cs2)C(c2ccc(Br)cc2)c2c(c3ccccc3oc2=O)O1` (stereo not drawn): the EC50 is more than 200 µM and the IC50 is more than 200 µM. Take `c1ccc(CNC2C(c3ccccc3)=NN(c3ccccc3)C2c2ccccc2)cc1` (stereo not drawn): the EC50 is more than 200 µM and the IC50 is more than 200 µM. As for `N.N.N.N.[Co+3].[O-][Cl+3]([O-])([O-])[O-].[OH3+].[OH3+]`, the result was inactive. `O=[N+]([O-])c1ccc(Cl)cc1N/N=C/c1cccs1`: the EC50 was more than 200 µM and the IC50 is more than 100 µM. In the same order, the values of `CC(=O)Nc1ccc(/C=C(\NC(=O)c2ccccc2)C(=O)NNS(=O)(=O)c2ccc(C)cc2)cc1` are more than 52.5 µM and more than 52.5 µM.

For `COC(=O)C1(Cc2ccc(C)cc2)Cc2c(C)cccc2C1=O` (stereo not drawn), the EC50 was more than 200 µM and the IC50 turned out to be 8.91 µM. As for `Cc1ccc(N=C2SC(=S)N(CCC[N+](C)(C)C)C2=Nc2ccc(C)cc2)cc1`, the EC50 is more than 200 µM and the IC50 worked out at 14.1 µM. In the same order, the values of `O=c1c2c(nc3n1CCC3)sc1c(O)c(Br)ccc12` are more than 200 µM and 11 µM. In the same order, the values of `CC(C)CCCC(C)[C@H]1CC[C@H]2[C@@H]3CC[C@H]4C[C@@H](CCC=C(c5cc(Cl)c(OCc6cccc(B(O)O)c6)c(C(=O)O)c5)c5cc(Cl)c(OCc6cccc(B(O)O)c6)c(C(=O)O)c5)CC[C@]4(C)[C@H]3CC[C@]12C` (stereo partly drawn) are 138 µM and more than 200 µM. In the same order, the values of `Clc1nc2n(c1/C=C/c1cccs1)CCS2` are more than 200 µM and 20.4 µM. As for `O=c1cc(-c2ccccc2)oc2cccc(O)c12`, the EC50 is more than 200 µM and the 50% inhibitory concentration (IC50) was more than 200 µM. On to `COC(=O)C(=C/c1ccc(OC)cc1)/C(C(=O)O)=C(/C)c1ccccc1`, for which the EC50 was more than 708 µM. As for `O=C1c2cc(Oc3ccccc3)c(S(=O)(=O)O)c(S(=O)(=O)O)c2C(=O)c2c(O)ccc(O)c21`, the EC50 is more than 200 µM and the IC50 worked out at 72.4 µM. The corresponding values for `CC1NC(=O)C2=C1C(=O)NC(=O)C2` (stereo not drawn) are 40.7 µM and 195 µM. The corresponding values for `Cc1ccc(S(=O)(=O)c2scc(-c3ccccc3)c2C)cc1` are more than 200 µM and 107 µM. In the same order, the values of `CC(=O)Nc1ccc(S(=O)(=O)c2ccc(NC(=O)c3ccccc3SC(=O)CCCC[n+]3ccccc3)cc2)cc1` are 13.5 µM and more than 200 µM. On to `CC1CCN(SSc2nc3ccccc3s2)CC1`, for which the EC50 is 45.7 µM and the IC50 came to 112 µM. Turning to `COc1cc2c(cc1OC)C(Cl)C(c1ccc(Cl)cc1)=C2Cl` (stereo not drawn), the result was inactive.
